The test system of one assay is K562. Briefly: In vitro IC50 against human cancer cells (Table 11), K562. In kind it is cell-based. The following applies: read-out: Human cancer cell lines (IC50, μM) K562.
The test system of another assay is MV-4-11. Briefly: In vitro IC50 against human cancer cells (Table 11), MV-4-11. Type of assay: cell-based. The following applies: MV4-11, read-out: Human cancer cell lines (IC50, μM) MV-4-11.
The next assay deals with MOLM-13. Briefly: In vitro IC50 against human cancer cells (Table 11), MOLM-13. The settings on record: read-out: Human cancer cell lines (IC50, μM) MOLM-13. In kind it is cell-based.
A further assay relates to RL cells. Briefly: IC50 of Ibrutinib analogs against human cancer cells, RL cells (Table 14). In kind it is cell-based. The following applies: Homo sapiens, RL, Table 14; RL human non-Hodgkin's lymphoma B cell line; read-out: RL (IC50).
The target in the next assay is T1, BMX (Homo sapiens, UniProt P51813).
T1 sequence (P51813 1-675): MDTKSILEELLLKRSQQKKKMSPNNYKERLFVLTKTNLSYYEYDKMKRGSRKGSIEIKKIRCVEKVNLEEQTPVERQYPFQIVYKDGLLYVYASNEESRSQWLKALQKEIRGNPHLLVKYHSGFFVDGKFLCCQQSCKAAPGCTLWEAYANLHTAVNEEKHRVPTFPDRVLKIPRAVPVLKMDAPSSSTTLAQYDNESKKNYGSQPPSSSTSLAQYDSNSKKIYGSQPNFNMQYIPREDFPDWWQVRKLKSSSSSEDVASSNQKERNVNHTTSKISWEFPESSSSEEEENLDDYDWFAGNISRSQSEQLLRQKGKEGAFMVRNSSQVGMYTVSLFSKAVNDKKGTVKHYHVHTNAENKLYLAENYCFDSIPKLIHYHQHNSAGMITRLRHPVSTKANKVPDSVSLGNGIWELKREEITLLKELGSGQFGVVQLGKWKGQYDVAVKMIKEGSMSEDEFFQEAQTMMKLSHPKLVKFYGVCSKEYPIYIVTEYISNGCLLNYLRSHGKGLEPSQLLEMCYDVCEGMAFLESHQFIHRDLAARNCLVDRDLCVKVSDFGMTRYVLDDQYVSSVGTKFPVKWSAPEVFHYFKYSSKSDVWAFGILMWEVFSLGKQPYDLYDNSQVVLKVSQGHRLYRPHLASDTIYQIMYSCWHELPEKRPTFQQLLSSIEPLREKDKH
Briefly: In vitro kinase inhibition studies (Table 9), BMX. Type of assay: biochemical.

The test system of another assay is tubulin. Briefly: In vitro % inhibition of tubulin polymerization (Table 12; absorbance at 340 nm, Vmax). In kind it is biochemical. The method, then:
A 96-well half-area clear flat-bottom microplate (Corning© #3697) is pre-heated in a plate reader (Cytation 3, BioTek) at 37° C. for 15 minutes prior to the start of each assay. Kinase buffer (80 mM PIPES pH 6.9, 2 mM MgCl2, 0.5 mM EGTA, 15% glycerol, 1 mM GTP) is prepared from stock solutions and placed on ice. Inhibitors of this application are prepared to 10 μM concentrations in buffer (80 mM PIPES pH 6.9, 2 mM MgCl2, 0.5 mM EGTA, 5% DMSO) from DMSO stock solutions. After the assay plate is pre-warmed, 10 μL of inhibitor or buffer control is added to selected wells. Every assay contained a kinase only negative control for normalization of data, and a known compound positive control. The assay plate is incubated at 37° C. for 3 minutes. During this time, a frozen aliquot of the kinase (10 mg/mL) in buffer (80 mM PIPES pH 6.9, 2 mM MgCl2, 0.5 mM EGTA) is defrosted by placing in a room temperature water bath. Once thawed, 200 μL of the kinase is mixed with 420 μL of the ice-cold kinase buffer (3 mg/mL kinase in 80 mM PIPES, pH 6.9, 2 mM MgCl2, 0.5 mM EGTA, 1 mM GTP, 10.2% glycerol). To a 96-well plate on ice, aliquots of 100 μL kinase is added to each well. From this plate, 90 μL of the kinase is immediately pipetted into all sample wells of the warmed assay plate using a multi-channel pipette. The assay plate is immediately put in the reader at 37° C. and shook for 5 s with orbital shaking at medium speed. The reader records the absorbance at 340 nm every 15 s for 30 min.
The resulting absorbance curves are normalized by subtracting each data point by the absorbance at time 0.

Assay [1] deals with T2, His-tagged BTK kinase domain (Homo sapiens, UniProt Q06187).
T2 construct: pET-28b(+)-BTK (402-655) vector; made in house; host or cells: E. coli BL21 (DE3) RILP
T2 sequence (Q06187 402-655): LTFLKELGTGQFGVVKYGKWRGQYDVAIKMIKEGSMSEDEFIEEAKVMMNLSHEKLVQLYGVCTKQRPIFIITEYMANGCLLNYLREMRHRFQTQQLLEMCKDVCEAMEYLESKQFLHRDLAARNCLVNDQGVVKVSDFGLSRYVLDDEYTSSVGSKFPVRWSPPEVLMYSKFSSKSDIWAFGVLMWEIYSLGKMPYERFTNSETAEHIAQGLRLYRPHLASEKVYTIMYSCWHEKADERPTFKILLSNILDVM
Briefly: Mass spectral analysis of tryptic digest of His-tagged BTK kinase domain (MSMS of modified peptides). In kind it is binding. The following applies: 10 μM compound, 45 min; for C481 labelled by test compound (tryptic digest peptide): cysteine 481. The method, then:
A protein kinase that is inhibited by compound and/or pharmaceutically acceptable salt of the present disclosure may be subjected to mass spectral analysis to assess the formation of permanent, irreversible covalent adducts. […] Such methods identify permanent, irreversible covalent protein adducts by observing a mass peak that corresponds to the mass of a control sample plus the mass of an irreversible adduct.
The starter cultures were incubated with shaking at 37° C. until cloudy and used to inoculate 1 L of Super broth containing same concentrations of kanamycin and chloramphenicol, 10 mM MgSO4, 5 mM CaCl2), and 0.1% (w/v) glucose. The cultures were incubated under similar conditions to an OD600 of 0.6-0.8. Before induction with 0.5 mM IPTG, the temperature was reduced to 16° C. The cells were harvested by centrifugation following approximately 18 h and frozen in a −80° C. freezer until use.
Cells were thawed in lysis buffer (50 mM HEPES [pH 7.6], 300 mM NaCl, 10 mM MgCl2, 10% [v/v] glycerol, 0.1 mg/mL lysozyme, 50 μg/mL DNase I, and protease inhibitors). Cells were sonicated (30 s on, 60 s off) for 3 repeating cycles. The cell lysates were cleared by centrifugation at 4° C. […] This eluant was cleaved with Ulp1 protease and loaded onto a S200 Superdex FPLC column (GE healthcare) pre-equilibrated with 20 mM HEPES pH 7.4, 150 mM NaCl, and 10% [v/v] glycerol. Pure fractions of His-tagged BTK kinase domain, as judged by SDS-PAGE, were pooled and concentrated using Amicon 10 kDa cutoff concentrators and after aliquoting stored at −80 C until use.
After the incubation time, the reactions were quenched by acetone precipitation and the pellet was re-dissolved in 8 M Urea. The protein was then reduced (5 mM DTT), alkylated (15 mM iodoacetamide) and digested (1 μg trypsin at 37° C. for 4 hours). The digest was then stopped by addition of trifluoroacetic acid, and peptides were removed from gel band by sonicating with increasing amounts of acetonitrile (0%, 30%, & 60%). Peptides were then purified using C18 ziptips, spotted on the MALDI target plate with a-cyano-4-hydroxycinnamic acid as the desorption matrix (10 mg/ml in 0.1% TFA: Acetonitrile 50:50), and analyzed in reflectron mode.

Another assay concerns the target BTK (Homo sapiens, UniProt Q06187). Briefly: In vitro BTK inhibition, biochemical IC50 (no preincubation). The settings on record: Table 7. The method, then:
IC50 Values (nM) for the Inhibition of BTK Activity
In vitro BTK and JAK3 inhibition studies are shown in Table 7 and Table 8 (no preincubation).

In a further assay the target is FGFR4 (Homo sapiens, UniProt P22455). Briefly: In vitro kinase inhibition studies (Table 9), FGFR4. In kind it is biochemical.
Sequence of FGFR4 (P22455 22-802, species assumed): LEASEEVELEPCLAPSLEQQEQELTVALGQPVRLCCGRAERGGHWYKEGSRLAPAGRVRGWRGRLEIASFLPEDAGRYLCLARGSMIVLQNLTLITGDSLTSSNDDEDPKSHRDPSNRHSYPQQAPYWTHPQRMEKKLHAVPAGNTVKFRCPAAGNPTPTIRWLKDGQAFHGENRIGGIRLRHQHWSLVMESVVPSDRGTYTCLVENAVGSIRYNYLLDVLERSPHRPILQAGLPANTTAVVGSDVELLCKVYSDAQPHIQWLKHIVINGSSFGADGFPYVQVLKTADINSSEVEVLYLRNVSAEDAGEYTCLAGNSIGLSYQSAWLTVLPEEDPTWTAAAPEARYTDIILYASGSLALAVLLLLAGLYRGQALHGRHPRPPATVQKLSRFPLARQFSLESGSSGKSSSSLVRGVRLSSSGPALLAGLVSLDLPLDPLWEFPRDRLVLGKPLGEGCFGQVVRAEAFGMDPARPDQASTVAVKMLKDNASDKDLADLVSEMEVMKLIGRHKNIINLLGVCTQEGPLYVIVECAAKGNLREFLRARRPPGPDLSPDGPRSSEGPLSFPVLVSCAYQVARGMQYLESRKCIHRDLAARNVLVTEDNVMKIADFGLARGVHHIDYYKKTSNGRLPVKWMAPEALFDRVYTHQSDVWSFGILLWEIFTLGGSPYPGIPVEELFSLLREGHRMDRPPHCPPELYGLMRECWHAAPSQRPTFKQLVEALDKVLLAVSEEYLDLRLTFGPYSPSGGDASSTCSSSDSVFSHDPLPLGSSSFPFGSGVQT
In another assay the target is FGFR1 (Homo sapiens, UniProt P11362). Briefly: In vitro kinase inhibition studies (Table 9), FGFR1. Type of assay: biochemical.
Sequence of FGFR1 (P11362 22-822, species assumed): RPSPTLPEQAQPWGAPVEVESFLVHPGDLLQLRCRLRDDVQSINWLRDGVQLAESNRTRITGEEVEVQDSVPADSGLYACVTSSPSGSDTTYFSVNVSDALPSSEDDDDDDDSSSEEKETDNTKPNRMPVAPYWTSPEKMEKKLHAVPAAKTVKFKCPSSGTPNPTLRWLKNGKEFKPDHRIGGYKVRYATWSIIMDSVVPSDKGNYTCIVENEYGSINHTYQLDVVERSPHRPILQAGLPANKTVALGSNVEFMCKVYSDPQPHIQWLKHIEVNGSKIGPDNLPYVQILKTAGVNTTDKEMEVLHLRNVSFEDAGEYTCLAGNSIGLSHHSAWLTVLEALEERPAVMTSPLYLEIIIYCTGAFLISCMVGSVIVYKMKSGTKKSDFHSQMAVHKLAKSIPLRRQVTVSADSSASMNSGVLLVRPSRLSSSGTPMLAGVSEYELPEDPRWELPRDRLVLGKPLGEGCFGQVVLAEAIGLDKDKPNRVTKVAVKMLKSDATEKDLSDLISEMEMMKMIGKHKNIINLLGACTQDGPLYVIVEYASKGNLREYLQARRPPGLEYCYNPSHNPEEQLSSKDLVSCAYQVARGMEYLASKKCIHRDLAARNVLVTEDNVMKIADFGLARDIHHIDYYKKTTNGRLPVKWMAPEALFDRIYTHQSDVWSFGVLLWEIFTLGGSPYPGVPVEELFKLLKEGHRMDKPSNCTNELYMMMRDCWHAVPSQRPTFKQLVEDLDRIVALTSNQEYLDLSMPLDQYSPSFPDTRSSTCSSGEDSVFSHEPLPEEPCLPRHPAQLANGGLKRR
[2] abbreviates: 10 μM His-BTK KD, tryptic digest MSMS.

Sequence of BTK (Q06187 whole entry, species assumed): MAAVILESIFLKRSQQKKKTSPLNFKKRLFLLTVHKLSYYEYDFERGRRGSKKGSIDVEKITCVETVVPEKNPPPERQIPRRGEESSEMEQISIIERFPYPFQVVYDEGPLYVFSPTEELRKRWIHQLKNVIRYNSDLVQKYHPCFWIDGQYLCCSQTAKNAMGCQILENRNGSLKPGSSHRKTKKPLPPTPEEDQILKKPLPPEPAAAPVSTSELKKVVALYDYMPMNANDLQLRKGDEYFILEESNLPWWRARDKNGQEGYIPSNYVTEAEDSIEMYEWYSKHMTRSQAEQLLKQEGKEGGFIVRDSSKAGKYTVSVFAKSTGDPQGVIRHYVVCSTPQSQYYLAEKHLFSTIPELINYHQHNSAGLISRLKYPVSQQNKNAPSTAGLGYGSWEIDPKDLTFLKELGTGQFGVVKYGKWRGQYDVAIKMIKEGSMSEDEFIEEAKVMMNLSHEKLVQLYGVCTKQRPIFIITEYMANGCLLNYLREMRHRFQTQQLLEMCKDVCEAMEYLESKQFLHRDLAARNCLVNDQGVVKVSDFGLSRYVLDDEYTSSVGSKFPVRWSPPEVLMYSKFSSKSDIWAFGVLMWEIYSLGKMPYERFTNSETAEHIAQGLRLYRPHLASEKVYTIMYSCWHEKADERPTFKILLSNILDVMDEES
Protocol for RL cells: 1×10^4 cells (NHF cells)/well are plated in 96-well assay plates in culture medium. […] After 24 hrs, test compounds and vehicle controls are added to appropriate wells so the final volume is 100p in each well. The cells are cultured for the desired test exposure period (72 hrs) at 37° C. and 5% CO2. The assay plates are removed from 37° C. incubator and 20 μl/well of CellTiter-Blue® Reagent is added. The plates are incubated using standard cell culture conditions for 1-4 hours and the plates are shaken for 10 seconds and record fluorescence at 560/590 nm. […] Therapeutic index=(IC50 human fibroblasts/IC50 […] )

Take `COc1ccc(N(C)S(=O)(=O)c2c(F)c(F)c(F)c(F)c2F)cc1F` [Compound 4-12, 2,3,4,5,6-pentafluoro-N-(3-fluoro-4-methoxyphenyl)-N-methylbenzenesulfonamide]: in the assay on K562, the IC50 was 0.1 to 10 µM.
Consider `O=S(=O)(Nc1ccc(Oc2ccccc2)cc1)c1c(F)c(F)c(F)c(F)c1F` [Compound 4-2, 2,3,4,5,6-pentafluoro-N-(4-phenoxyphenyl)benzenesulfonamide], for which the IC50 with MV-4-11 and in the assay on MOLM-13 was 10 to 100 µM throughout.
As for `Nc1ncnc2c1c(-c1ccc(Oc3ccccc3)cc1)nn2S(=O)(=O)c1c(F)c(F)c(F)c(F)c1F` [Compound 5-19, 1-((perfluorophenyl)sulfonyl)-3-(4-phenoxyphenyl)-1H-pyrazolo[3,4-d]pyrimidin-4-amine], the half-maximal inhibitory concentration (IC50) in the assay on RL cells is 1640 nM; at BMX, 10 to 300 nM.
Consider `O=S(=O)(Nc1ccc(OCF)c(F)c1)c1c(F)c(F)c(F)c(F)c1F` [Compound 4-6, 2,3,4,5,6-pentafluoro-N-(3-fluoro-4-(fluoromethoxy)phenyl)benzenesulfonamide], for which the IC50 in the assay with MV-4-11, with MOLM-13 and in the assay with K562 was 0.1 to 10 µM in each case. Also, in the assay on tubulin, the “% inhibition of tubulin polymerization” value was “B (B: 10-20%)”.
On to `Nc1ncnc2c1c(-c1ccc(Oc3ccccc3)cc1)nn2[C@H]1CCCN(S(=O)(=O)c2c(F)c(F)c(F)c(F)c2F)C1` [Compound 5-2, (S)-1-(1-((perfluorophenyl)sulfonyl)piperidin-3-yl)-3-(4-phenoxyphenyl)-1H-pyrazolo[3,4-d]pyrimidin-4-amine], for which the IC50 on BMX lay within 0.1 to 10 nM.
As to `COc1ccc(NS(=O)(=O)c2c(F)c(F)c(F)c(F)c2F)cc1F` [Batabulin], the IC50 in the assay on MV-4-11, with MOLM-13 and with K562 was not above 0.1 µM in each case. In addition, in the assay with tubulin, the “% inhibition of tubulin polymerization” value is “C (C > 20%)”.
In the case of `O=S(=O)(Nc1ccc(OC(F)(F)F)c(F)c1)c1c(F)c(F)c(F)c(F)c1F` [Compound 4-1, 2,3,4,5,6-pentafluoro-N-(3-fluoro-4-(trifluoromethoxy)phenyl)benzenesulfonamide], the IC50 in the assay on MV-4-11, in the assay on MOLM-13 and in the assay on K562 was 10 to 100 µM each time. For the same molecule, in the assay with tubulin, the “% inhibition of tubulin polymerization” value was “B (B: 10-20%)”.
As for `Nc1ncnc2c1c(-c1ccc(Oc3ccccc3)cc1)nn2CCNS(=O)(=O)c1c(F)c(F)c(F)c(F)c1F` [Compound 5-3, N-[2-[4-amino-3-(4-phenoxyphenyl)pyrazolo[3,4-d]pyrimidin-1-yl]ethyl]-2,3,4,5,6-pentafluoro-benzenesulfonamide], the “C481 labelled by test compound (tryptic digest peptide)” value in assay [1] (10 μM BTK KD) is listed as “✓”. Also, the “C527 labelled by test compound (tryptic digest peptide)” value in [1] (cysteine 527, 10 μM BTK KD) is recorded as “✓”. On BMX, this molecule yielded a concentration for half-maximal inhibition (IC50) of 0.1 to 10 nM.
As for `O=S(=O)(Nc1ccc(O)c(F)c1)c1c(F)c(F)c(F)c(F)c1F` [Compound 4-3, 2,3,4,5,6-pentafluoro-N-(3-fluoro-4-hydroxyphenyl)benzenesulfonamide], the IC50 in the assay on MV-4-11 is 0.1 to 10 µM. Besides, the “% inhibition of tubulin polymerization” value in the assay on tubulin is reported as “A (A: < 10%)”.
Molecule `Nc1ncnc2c1c(-c1ccc(Oc3ccccc3)cc1)nn2[C@@H]1CCN(S(=O)(=O)c2c(F)c(F)c(F)c(F)c2F)C1` [Compound 5-5, (R)-1-(1-((perfluorophenyl)sulfonyl)pyrrolidin-3-yl)-3-(4-phenoxyphenyl)-1H-pyrazolo[3,4-d]pyrimidin-4-amine] displayed an IC50 against BTK of 0.1 to 10 nM.
With `O=S(=O)(Nc1ccc(OC(F)F)c(F)c1)c1c(F)c(F)c(F)c(F)c1F` [Compound 4-4, N-(4-(difluoromethoxy)-3-fluorophenyl)-2,3,4,5,6-pentafluorobenzenesulfonamide], the IC50 with MV-4-11 and with MOLM-13 was 0.1 to 10 µM in each case. The “% inhibition of tubulin polymerization” value in the assay with tubulin is “B (B: 10-20%)”.
As for `N#Cc1ccc(NS(=O)(=O)c2c(F)c(F)c(F)c(F)c2F)cc1F` [Compound 4-5, N-(4-cyano-3-fluorophenyl)-2,3,4,5,6-pentafluorobenzenesulfonamide], in the assay on MV-4-11, the IC50 lay within 10 to 100 µM.
In the case of `COCCOc1ccc(Nc2ncc(F)c(NCCNS(=O)(=O)c3c(F)c(F)c(F)c(F)c3F)n2)cc1` [Compound 5-13, 2,3,4,5,6-pentafluoro-N-(2-((5-fluoro-2-((4-(2-methoxyethoxy)phenyl)amino)pyrimidin-4-yl)amino)ethyl)benzenesulfonamide], the IC50 at FGFR4 was more than 2000 nM. Further, in assay [1] (setting [2]), the “amino acid of BTK modified by one equivalent of compound” value is on record as “Cys-481” and the “observed mass of modified tryptic peptide” value stood at 3059.4 Da. Moreover, the “C481 labelled by test compound (tryptic digest peptide)” value in assay [1] (10 μM BTK KD) is on record as “✓”. At FGFR1, this molecule showed an IC50 of more than 2000 nM.
With `COCCOc1ccc(Nc2ncc(F)c(Nc3cccc(N(C)S(=O)(=O)c4c(F)c(F)c(F)c(F)c4F)c3)n2)cc1` [Compound 5-17, 2,3,4,5,6-pentafluoro-N-(3-((5-fluoro-2-((4-(2-methoxyethoxy)phenyl)amino)pyrimidin-4-yl)amino)phenyl)-N-methylbenzenesulfonamide], the 50% inhibitory concentration (IC50) at BMX was in the range of 0.1 to 10 nM.
For the molecule `COCCOc1ccc(Nc2ncc(F)c(Nc3ccc(NS(=O)(=O)c4c(F)c(F)c(F)c(F)c4F)cc3)n2)cc1` [Compound 5-14, 2,3,4,5,6-pentafluoro-N-(4-((5-fluoro-2-((4-(2-methoxyethoxy)phenyl)amino)pyrimidin-4-yl)amino)phenyl)benzenesulfonamide], the IC50 on FGFR4 and against FGFR1 was 10 to 300 nM each time.

The values above are taken from patent publication US20230055961A1, “PENTAFLUOROBENZENESULFONAMIDE DERIVATIVES AND USES THEREOF” (Dunad Therapeutics Ltd., priority 2019, published 2023).
